Converted amounts (≈) assume the structure as drawn.
Experiments:
Assay in all cases: MIC, serial dilution test on Iso-sensitest agar
Type in all cases: cell-based
[1] = system: Acinetobacter caloaceticus 14068; conditions: 37° C., approx. 20 hours, approx. 10^4 CFU per inoculation point
Method: (§1) The minimum inhibitory concentrations (MIC) were determined by the serial dilution test on Iso-sensitest agar (Oxoid). For each test substance, a series of agar plates was prepared which contained concentrations of the active substance which decreased at a rate of in each case twice the dilution factor. The agar plates were inoculated using a multipoint inoculator (Denley). For inoculation, overnight cultures of the pathogens were used which had previously been diluted in such a manner that each inoculation point contained approximately 10^4 colony-forming units. The inoculated agar plates were incubated at 37° C., and the microbial growth was observed after approx. 20 hours. The MIC value (μg/ml) indicates the lowest active compound concentration at which no growth could be detected by the naked eye.

E. coli 455/7 = conditions: Escherichia coli, 37° C., approx. 20 hours, approx. 10^4 CFU per inoculation point
Method: as §1

E. coli Neumann = conditions: Escherichia coli, 37° C., approx. 20 hours, approx. 10^4 CFU per inoculation point
Method: as §1

[2] = system: Enterococcus faecalis 27101; conditions: 37° C., approx. 20 hours, approx. 10^4 CFU per inoculation point
Method: as §1

[3] = system: Enterococcus faecalis 9790; conditions: 37° C., approx. 20 hours, approx. 10^4 CFU per inoculation point
Method: as §1

Klebsiella pneumoniae 63 = conditions: 37° C., approx. 20 hours, approx. 10^4 CFU per inoculation point
Method: as §1

[4] = system: Klebsiella pneumoniae 8085; conditions: 37° C., approx. 20 hours, approx. 10^4 CFU per inoculation point
Method: as §1

Mirococcus luteus 9341 = conditions: 37° C., approx. 20 hours, approx. 10^4 CFU per inoculation point
Method: as §1

Providencia sp. 12012 = conditions: 37° C., approx. 20 hours, approx. 10^4 CFU per inoculation point
Method: as §1

Providencia sp. 12052 = conditions: 37° C., approx. 20 hours, approx. 10^4 CFU per inoculation point
Method: as §1

[5] = system: Staphylococcus aureus 133; conditions: 37° C., approx. 20 hours, approx. 10^4 CFU per inoculation point
Method: as §1

[6] = system: Staphylococcus aureus 1756; conditions: 37° C., approx. 20 hours, approx. 10^4 CFU per inoculation point
Method: as §1

[7] = system: Staphylococcus aureus 25768; conditions: 37° C., approx. 20 hours, approx. 10^4 CFU per inoculation point
Method: as §1

[8] = system: Staphylococcus aureus ICB 25701; conditions: ICB25701, 37° C., approx. 20 hours, approx. 10^4 CFU per inoculation point
Method: as §1

| Structure (SMILES) | MIC [1] | MIC (E. coli 455/7) | MIC (E. coli Neumann) | MIC [2] | MIC [3] | MIC (Klebsiella pneumoniae 63) | MIC [4] | MIC (Mirococcus luteus 9341) | MIC (Providencia sp. 12012) | MIC (Providencia sp. 12052) | MIC [5] | MIC [6] | MIC [7] | MIC [8] |
| --- | --- | --- | --- | --- | --- | --- | --- | --- | --- | --- | --- | --- | --- | --- |
| NC1C=CCC2CN(c3ccc4c(=O)c(C(=O)O)cn(C5CC5)c4c3Cl)CC12 (stereo not shown) [Example 7] | 0.015 µg/mL (≈ 0.0375 µM) | 0.5 µg/mL (≈ 1.25 µM) | 0.0078 µg/mL (≈ 0.0195 µM) | 0.015 µg/mL (≈ 0.0375 µM) | 0.03 µg/mL (≈ 0.075 µM) | 0.015 µg/mL (≈ 0.0375 µM) | 0.015 µg/mL (≈ 0.0375 µM) | 0.03 µg/mL (≈ 0.075 µM) | 0.015 µg/mL (≈ 0.0375 µM) | 1 µg/mL (≈ 2.5 µM) | 0.0039 µg/mL (≈ 0.00975 µM) | 0.0039 µg/mL (≈ 0.00975 µM) | 2 µg/mL (≈ 5 µM) | 0.06 µg/mL (≈ 0.15 µM) |
| CC1C=CC(N)C2CN(c3ccc4c(=O)c(C(=O)O)cn(C5CC5)c4c3Cl)CC12 (stereo not shown) [Example 8] | 0.03 µg/mL (≈ 0.0725 µM) | 0.5 µg/mL (≈ 1.21 µM) | 0.015 µg/mL (≈ 0.0362 µM) | 0.06 µg/mL (≈ 0.145 µM) | 0.06 µg/mL (≈ 0.145 µM) | 0.03 µg/mL (≈ 0.0725 µM) | 0.03 µg/mL (≈ 0.0725 µM) | 0.06 µg/mL (≈ 0.145 µM) | 0.06 µg/mL (≈ 0.145 µM) | 1 µg/mL (≈ 2.42 µM) | 0.0078 µg/mL (≈ 0.0188 µM) | 0.0078 µg/mL (≈ 0.0188 µM) | 2 µg/mL (≈ 4.83 µM) | 0.06 µg/mL (≈ 0.145 µM) |
| NC1C=CCC2CN(c3ccc4c(=O)c(C(=O)O)cn(C5CC5)c4c3F)CC12 (stereo not shown) [Example 20] | 0.06 µg/mL (≈ 0.156 µM) | 1 µg/mL (≈ 2.61 µM) | 0.03 µg/mL (≈ 0.0782 µM) | 0.06 µg/mL (≈ 0.156 µM) | 0.06 µg/mL (≈ 0.156 µM) | 0.03 µg/mL (≈ 0.0782 µM) | 0.03 µg/mL (≈ 0.0782 µM) | 0.06 µg/mL (≈ 0.156 µM) | 0.06 µg/mL (≈ 0.156 µM) | 1 µg/mL (≈ 2.61 µM) | 0.03 µg/mL (≈ 0.0782 µM) | 0.015 µg/mL (≈ 0.0391 µM) | 4 µg/mL (≈ 10.4 µM) | 0.25 µg/mL (≈ 0.652 µM) |
| CC1C=CC(N)C2CN(c3ccc4c(=O)c(C(=O)O)cn(C5CC5)c4c3F)CC12 (stereo not shown) [Example 21] | 0.03 µg/mL (≈ 0.0755 µM) | 0.5 µg/mL (≈ 1.26 µM) | 0.015 µg/mL (≈ 0.0377 µM) | 0.06 µg/mL (≈ 0.151 µM) | 0.06 µg/mL (≈ 0.151 µM) | 0.3 µg/mL (≈ 0.755 µM) | 0.3 µg/mL (≈ 0.755 µM) | 0.125 µg/mL (≈ 0.315 µM) | 0.06 µg/mL (≈ 0.151 µM) | 1 µg/mL (≈ 2.52 µM) | 0.015 µg/mL (≈ 0.0377 µM) | 0.015 µg/mL (≈ 0.0377 µM) | 2 µg/mL (≈ 5.03 µM) | 0.25 µg/mL (≈ 0.629 µM) |
| NC1CCN(c2ccc3c(=O)c(C(=O)O)cn(C4CC4)c3c2F)C1 (stereo not shown) [Reference, 7-(3-aminopyrrolidin-1-yl)-1-cyclopropyl-8-fluoro-1,4-dihydro-4-oxo-3-quinolinecarboxylic acid, reference compound] | 0.25 µg/mL (≈ 0.754 µM) | 1 µg/mL (≈ 3.02 µM) | 0.031 µg/mL (≈ 0.0936 µM) | 0.25 µg/mL (≈ 0.754 µM) | 0.25 µg/mL (≈ 0.754 µM) | 0.062 µg/mL (≈ 0.187 µM) | 0.062 µg/mL (≈ 0.187 µM) | 0.5 µg/mL (≈ 1.51 µM) | 0.06 µg/mL (≈ 0.181 µM) | 2 µg/mL (≈ 6.04 µM) | 0.125 µg/mL (≈ 0.377 µM) | 0.125 µg/mL (≈ 0.377 µM) | 16 µg/mL (≈ 48.3 µM) | 4 µg/mL (≈ 12.1 µM) |

Reference: patent US5457104A, “Quinolone- and naphthyridonecarboxylic acid derivatives” (Bayer Aktiengesellschaft, priority 1993, dated 1995)
